Data on four compounds can be found in PubChem BioAssay (NCI).

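1) Cells in 96-well plates. 2) Compound, 48 h, 5 concentrations. 3) Linear interpolation between surrounding doses. 4) Unreached endpoint = highest concentration. GI50 = concentration required for 50% inhibition of growth. TGI denotes the concentration required for complete inhibition of growth.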

Test systems include MDA-MB-435; T-47D breast; M14 melanoma; MCF7 breast; SF-268 CNS; HCC-2998 colon; OVCAR-3 ovarian; SK-OV-3 ovarian; SNB-19 CNS; SR leukemia.
Test in all cases: growth of human tumour cells (NCI), 48 h

Regarding `COc1cc2cc(NCc3cccc(Cl)c3)nc(C)c2cc1OC`, the GI50 was 969 nM in the assay with MDA-MB-435; 459 nM in the assay on T-47D breast; 520 nM in the assay with M14 melanoma; 4720 nM in the assay on MCF7 breast; 2970 nM with SF-268 CNS; 2270 nM in the assay with HCC-2998 colon. In addition, the GI50 is 3720 nM in the assay with OVCAR-3 ovarian, 4940 nM in the assay with SK-OV-3 ovarian, 2120 nM in the assay with SNB-19 CNS and 1660 nM in the assay on SR leukemia. In addition, the TGI in the assay on MDA-MB-435 was 6260 nM; in the assay on T-47D breast, 9310 nM; in the assay with M14 melanoma, 10100 nM; in the assay on MCF7 breast, 23000 nM; with SF-268 CNS it was 23900 nM; with HCC-2998 colon it was 14500 nM. The TGI came to 16300 nM in the assay with OVCAR-3 ovarian, 33500 nM in the assay on SK-OV-3 ovarian, 31800 nM with SNB-19 CNS and 44900 nM in the assay with SR leukemia.
Take `N#CC1=C(N)Oc2c(sc3c(Br)cccc23)C1c1ccc([N+](=O)[O-])cc1` (stereo not given): the GI50 was 20.6 nM in the assay on MDA-MB-435; 840 nM in the assay with T-47D breast; 96.4 nM with M14 melanoma; 151 nM in the assay with MCF7 breast; 547 nM in the assay on SF-268 CNS; 284 nM in the assay on HCC-2998 colon. Besides, the GI50 is 40.3 nM in the assay with OVCAR-3 ovarian, 128 nM in the assay with SK-OV-3 ovarian, 139 nM in the assay with SNB-19 CNS and 48 nM with SR leukemia. For the same compound, the TGI in the assay with MDA-MB-435 is 80.7 nM; with T-47D breast, 25300 nM; in the assay on M14 melanoma, 11800 nM; in the assay on MCF7 breast, 11600 nM; with SF-268 CNS, 10700 nM; in the assay with HCC-2998 colon, 6940 nM. Moreover, the TGI was determined as 849 nM with OVCAR-3 ovarian, 15100 nM with SK-OV-3 ovarian, 13000 nM with SNB-19 CNS and 6450 nM in the assay with SR leukemia.
Take `COc1cc(/C=C/C(=O)c2cccc(-n3cc(-c4ccccc4)[nH]c3=O)c2)cc(OC)c1OC`: the GI50 in the assay with MDA-MB-435 was 1200 nM; with T-47D breast it was 2190 nM; with M14 melanoma, 1350 nM; in the assay on MCF7 breast, 310 nM; with SF-268 CNS, 1920 nM; in the assay on HCC-2998 colon, 1260 nM. Further, the GI50 was 1230 nM in the assay on OVCAR-3 ovarian, 3270 nM in the assay with SK-OV-3 ovarian, 2350 nM in the assay with SNB-19 CNS and 565 nM in the assay with SR leukemia. Besides, the TGI in the assay with MDA-MB-435 came to 5350 nM; with T-47D breast it was 6900 nM; with M14 melanoma it was 2720 nM; in the assay with MCF7 breast, 1120 nM; with SF-268 CNS, 5740 nM; with HCC-2998 colon, 2510 nM. The TGI in the assay with OVCAR-3 ovarian is 3140 nM; in the assay with SK-OV-3 ovarian it was 11300 nM; with SNB-19 CNS, 5690 nM; in the assay with SR leukemia it was greater than 100000 nM.
As to `CCC(=C(c1ccc(OCCN2CCCCC2)cc1)c1ccc(OCCN2CCCCC2)cc1)c1ccc(Cl)cc1`, the GI50 in the assay on MDA-MB-435 is 2610 nM; with T-47D breast it was 9620 nM; in the assay with M14 melanoma, 669 nM; in the assay with MCF7 breast, 761 nM; with SF-268 CNS, 6700 nM; in the assay with HCC-2998 colon it was 2800 nM. Further, the GI50 is 11200 nM with OVCAR-3 ovarian, greater than 16700 nM in the assay with SK-OV-3 ovarian, 5910 nM in the assay with SNB-19 CNS and 425 nM in the assay on SR leukemia. Further, the TGI in the assay on MDA-MB-435 was 5390 nM; in the assay on T-47D breast, greater than 16700 nM; in the assay with M14 melanoma, 2650 nM; with MCF7 breast, greater than 16700 nM; in the assay with SF-268 CNS, greater than 16700 nM; in the assay with HCC-2998 colon, greater than 16700 nM. Moreover, the TGI is greater than 16700 nM with OVCAR-3 ovarian, greater than 16700 nM in the assay on SK-OV-3 ovarian, greater than 16700 nM with SNB-19 CNS and 1270 nM in the assay on SR leukemia.
